According to ChEMBL document CHEMBL5678814, “Novel Mps1 Kinase Inhibitors with Potent Antitumor Activity” (Mol Cancer Ther, 2016):

Legend:
[1] = molecular target: Mitogen-activated protein kinase kinase kinase kinase 1 (Homo sapiens, UniProt Q92918); test: Binding affinity to HPK1 (unknown origin) assessed as dissociation constant
[2] = tested on: NCI-H647; test: Antiproliferative activity against human NCI-H647 cells assessed as cell growth inhibition incubated for 96 hrs by MTS assay; type: functional, cell-based; conditions: NCI-H647, 96 h
[3] = tested on: DU-145; test: Antiproliferative activity against human DU-145 cells assessed as cell growth inhibition incubated for 96 hrs by MTS assay; type: functional, cell-based; conditions: DU-145, 96 h
[4] = tested on: OV-90; test: Antiproliferative activity against human OV-90 cells assessed as cell growth inhibition incubated for 96 hrs by crystal violet staining; conditions: OV-90, 96 h
[5] = tested on: NCI-H28; test: Antiproliferative activity against human NCI-H28 cells assessed as cell growth inhibition incubated for 96 hrs by crystal violet staining; conditions: NCI-H28, 96 h
[6] = tested on: IGROV-1; test: Antiproliferative activity against human IGROV-1 cells assessed as cell growth inhibition incubated for 96 hrs by crystal violet staining; conditions: IGROV-1, 96 h
[7] = tested on: NCI-H2052; test: Antiproliferative activity against human NCI-H2052 cells assessed as cell growth inhibition incubated for 96 hrs by crystal violet staining; conditions: NCI-H2052, 96 h
[8] = tested on: HCT-116; test: Antiproliferative activity against human TP53 mutant HCT-116 cells assessed as cell growth inhibition incubated for 96 hrs by crystal violet staining; conditions: HCT-116, 96 h

Sequence of Mitogen-activated protein kinase kinase kinase kinase 1 (Q92918 whole entry): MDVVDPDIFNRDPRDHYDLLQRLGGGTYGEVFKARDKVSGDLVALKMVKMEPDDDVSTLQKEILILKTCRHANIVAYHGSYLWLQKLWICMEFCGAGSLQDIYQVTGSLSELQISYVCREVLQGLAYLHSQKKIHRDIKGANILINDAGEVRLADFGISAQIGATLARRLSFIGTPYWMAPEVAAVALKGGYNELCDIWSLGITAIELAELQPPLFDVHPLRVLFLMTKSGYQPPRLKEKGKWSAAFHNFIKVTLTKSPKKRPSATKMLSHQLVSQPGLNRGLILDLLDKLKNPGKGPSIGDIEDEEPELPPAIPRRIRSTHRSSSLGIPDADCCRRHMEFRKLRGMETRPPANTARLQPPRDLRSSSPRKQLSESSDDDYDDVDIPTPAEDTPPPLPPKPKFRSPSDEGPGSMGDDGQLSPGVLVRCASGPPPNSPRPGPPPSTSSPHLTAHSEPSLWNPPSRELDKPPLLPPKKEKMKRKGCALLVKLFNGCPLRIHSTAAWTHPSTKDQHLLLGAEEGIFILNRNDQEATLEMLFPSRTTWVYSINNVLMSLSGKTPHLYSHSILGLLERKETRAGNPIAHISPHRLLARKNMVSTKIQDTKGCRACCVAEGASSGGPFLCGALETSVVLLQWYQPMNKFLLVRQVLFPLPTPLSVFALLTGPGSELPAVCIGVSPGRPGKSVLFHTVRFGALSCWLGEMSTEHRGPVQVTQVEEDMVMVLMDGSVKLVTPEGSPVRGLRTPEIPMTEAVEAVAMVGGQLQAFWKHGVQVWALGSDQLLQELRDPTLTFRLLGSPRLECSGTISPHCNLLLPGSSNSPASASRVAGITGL

With COc1cc(S(C)(=O)=O)ccc1Nc1nc2ccc(-c3ccc(NC(=O)[C@H](C)c4ccc(F)cc4)cc3)cn2n1 [BAY-1161909] the Kd [1] was 40 µM, the IC50 [2] was 0.57 µM and the IC50 [3] was 0.16 µM. For the same compound, the IC50 [4] was 0.15 µM, the IC50 [5] was 0.11 µM and the IC50 [6] was 0.24 µM. For the same compound, the IC50 [7] was 0.096 µM and the IC50 [8] was 0.059 µM.
